Assay results: paper PMC7854383, “Cellular Uptake of Psychostimulants – Are High- and Low-Affinity Organic Cation Transporters Drug Traffickers?” (Frontiers in Pharmacology, 2021)
Where a chain is given by its changes, count along the chain named. “And” between values parts separate entries of the source, which are not always exact repeats. Equal values may be shown once.

Tests used:
OCT1 [1] = molecular target: T1, OCT1 (Homo sapiens, UniProt O15245); assay: Screening of cellular uptake at 1 µM, OCT1-overexpressing HEK293 cells over empty vector control cells; conditions: 2 min
T1 sequence (O15245 1-554): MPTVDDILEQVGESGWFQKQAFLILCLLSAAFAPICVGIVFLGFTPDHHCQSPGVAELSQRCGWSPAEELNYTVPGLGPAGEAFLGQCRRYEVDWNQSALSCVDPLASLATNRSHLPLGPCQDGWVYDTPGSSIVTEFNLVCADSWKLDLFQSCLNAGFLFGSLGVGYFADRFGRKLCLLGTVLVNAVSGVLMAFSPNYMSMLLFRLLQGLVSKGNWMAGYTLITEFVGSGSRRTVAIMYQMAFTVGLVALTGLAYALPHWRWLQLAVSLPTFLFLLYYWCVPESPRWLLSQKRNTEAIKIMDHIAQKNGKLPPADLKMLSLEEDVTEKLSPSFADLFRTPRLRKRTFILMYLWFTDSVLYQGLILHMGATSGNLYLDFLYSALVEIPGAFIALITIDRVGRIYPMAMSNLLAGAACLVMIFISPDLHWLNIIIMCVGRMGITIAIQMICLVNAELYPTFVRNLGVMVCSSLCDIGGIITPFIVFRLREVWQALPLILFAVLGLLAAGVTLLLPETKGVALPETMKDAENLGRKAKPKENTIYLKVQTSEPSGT
Excerpt: (§1) Koepsell and Gorbulev (University of Würzburg, Germany).
(§2) Eighteen psychostimulants and hallucinogens were initially screened for their potential to be substrates for different polyspecific OCTs and high-affinity monoamine neurotransmitter transporters (Figure 3), as well as for the efflux transporter MATE2-K (Supplementary Figure S1).

OCT3 = molecular target: T2, OCT3 (Homo sapiens, UniProt O75751); assay: Screening of cellular uptake at 1 µM, OCT3-overexpressing HEK293 cells over empty vector control cells; assay type: in vitro ADME; conditions: 2 min
T2 construct: Koepsell and Gorbulev (University of Würzburg); host or cells: HEK293
T2 sequence (O75751 1-556): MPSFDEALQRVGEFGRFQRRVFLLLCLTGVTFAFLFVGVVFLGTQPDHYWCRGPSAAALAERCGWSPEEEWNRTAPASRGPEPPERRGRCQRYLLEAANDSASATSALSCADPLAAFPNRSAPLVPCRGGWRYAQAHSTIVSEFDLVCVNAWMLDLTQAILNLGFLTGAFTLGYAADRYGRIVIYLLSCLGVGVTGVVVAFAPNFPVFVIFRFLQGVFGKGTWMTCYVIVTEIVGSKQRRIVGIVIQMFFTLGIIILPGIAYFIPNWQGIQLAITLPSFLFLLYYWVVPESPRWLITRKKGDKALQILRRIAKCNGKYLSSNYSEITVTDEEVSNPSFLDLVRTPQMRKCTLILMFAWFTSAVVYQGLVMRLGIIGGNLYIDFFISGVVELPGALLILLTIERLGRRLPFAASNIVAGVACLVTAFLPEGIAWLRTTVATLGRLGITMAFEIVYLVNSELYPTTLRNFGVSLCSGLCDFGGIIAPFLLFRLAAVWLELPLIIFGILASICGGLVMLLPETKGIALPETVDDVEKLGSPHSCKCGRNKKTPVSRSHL
Excerpt: as §1, §2

MATE2-K = molecular target: T3, MATE2-K (Homo sapiens, UniProt Q86VL8); assay: Screening of cellular uptake at 1 µM, MATE2-K-overexpressing HEK293 cells over empty vector control cells; assay type: in vitro ADME; conditions: 1 min
T3 construct: expressed in transfected cells
T3 sequence (Q86VL8 1-566 isoform Q86VL8-3): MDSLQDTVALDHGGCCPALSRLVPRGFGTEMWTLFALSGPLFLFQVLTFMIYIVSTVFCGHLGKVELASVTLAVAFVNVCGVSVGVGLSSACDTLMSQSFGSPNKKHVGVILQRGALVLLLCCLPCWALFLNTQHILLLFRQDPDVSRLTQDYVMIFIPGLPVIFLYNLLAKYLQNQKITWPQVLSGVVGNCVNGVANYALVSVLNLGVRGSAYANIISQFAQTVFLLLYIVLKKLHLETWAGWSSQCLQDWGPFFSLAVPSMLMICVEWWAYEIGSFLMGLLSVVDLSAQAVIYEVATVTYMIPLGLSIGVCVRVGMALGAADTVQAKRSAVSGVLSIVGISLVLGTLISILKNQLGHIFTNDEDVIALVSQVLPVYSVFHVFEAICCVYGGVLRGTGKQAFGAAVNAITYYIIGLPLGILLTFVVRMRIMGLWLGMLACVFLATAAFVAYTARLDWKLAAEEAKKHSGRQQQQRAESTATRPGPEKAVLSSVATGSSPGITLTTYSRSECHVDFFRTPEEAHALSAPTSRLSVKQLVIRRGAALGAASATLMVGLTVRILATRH
Excerpt: as §1, §2

SERT = SERT (Homo sapiens, UniProt P31645); assay: Screening of cellular uptake at 1 µM, SERT-overexpressing HEK293 cells over empty vector control cells; assay type: in vitro ADME; conditions: 2 min
SERT, sequence (P31645 whole entry): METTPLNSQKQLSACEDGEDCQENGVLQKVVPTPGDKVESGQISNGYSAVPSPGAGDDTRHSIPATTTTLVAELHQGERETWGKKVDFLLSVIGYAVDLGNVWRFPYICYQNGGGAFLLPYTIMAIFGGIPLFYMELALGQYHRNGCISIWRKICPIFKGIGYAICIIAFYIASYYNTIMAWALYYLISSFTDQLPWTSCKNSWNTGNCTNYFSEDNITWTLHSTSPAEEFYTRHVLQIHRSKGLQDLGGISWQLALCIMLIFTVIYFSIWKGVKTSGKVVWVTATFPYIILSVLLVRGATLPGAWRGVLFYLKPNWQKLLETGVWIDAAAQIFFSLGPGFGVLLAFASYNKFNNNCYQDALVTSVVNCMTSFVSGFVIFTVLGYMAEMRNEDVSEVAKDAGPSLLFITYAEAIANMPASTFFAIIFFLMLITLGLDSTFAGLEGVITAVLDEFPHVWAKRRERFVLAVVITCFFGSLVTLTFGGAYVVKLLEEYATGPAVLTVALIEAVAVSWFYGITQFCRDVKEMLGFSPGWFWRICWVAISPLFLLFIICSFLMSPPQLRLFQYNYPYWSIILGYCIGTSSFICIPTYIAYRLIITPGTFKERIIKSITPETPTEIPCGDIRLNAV

OCT1*1 (WT) = molecular target: T4, OCT1*1 (WT) (Homo sapiens, UniProt O15245); conditions: net transport, 2 min
T4 sequence (O15245 1-554): T1 sequence (O15245 1-554)
Experimental: (§3) The cells were kept in culture for no more than 30 passages.
(§4) The HEK293 cells were cultered in DMEM medium supplemented with 10% (v/v) fetal bovine serum as well as penicillin (100 U/ml) and streptomycin (100 μg/ml) obtained from Thermo Fisher Scientific (Darmstadt, Germany). Cells were seeded on 12-well plates coated with poly-D-lysine (Sigma-Aldrich, Taufkirchen, Germany) 48 h before the transport experiments and incubated at 37°C, 95% relative humidity, and 5% CO2. Cell lines overexpressing MATE2-K were incubated with 30 mM NH4Cl in HBSS+ (10 mM HEPES in HBSS, pH 7.4; Thermo Fisher Scientific, Darmstadt, Germany) for 30 min prior to the assay to invert the direction of transport. All cell lines were washed with 37°C HBSS+ and subsequently incubated with the pre-warmed substrate in HBSS+ at 37°C. […] Subsequently, the intracellular substrate accumulation was determined using LC-MS/MS.
(§5) Intracellular accumulation was measured by HPLC-MS/MS using a Shimadzu Nexera HPLC system with a LC-30AD pump, a SIL-30AC autosampler, a CTO-20AC column oven, and a CBM-20A controller (Shimadzu, Kyoto, Japan). […] Peak integration and quantification of the analytes was done using the Analyst software (Version 1.6.2, AB SCIEX, Darmstadt, Germany) and determined by simultaneous measurement of standard curves with known concentrations. […]

OCT1*3 (R61C) = molecular target: T5, OCT1*3 (R61C) (Homo sapiens, UniProt O15245, R61C)
T5 sequence (O15245 1-554 R61C): T1 sequence (O15245 1-554) with R61C
Experimental: as §3, §4, §5

OCT1*6 (M420del, C88R) = molecular target: T6, OCT1*6 (M420del, C88R) (Homo sapiens, UniProt O15245, C88R/DEL420-420)
T6 sequence (O15245 with tags, fused parts or gaps C88R/DEL420-420): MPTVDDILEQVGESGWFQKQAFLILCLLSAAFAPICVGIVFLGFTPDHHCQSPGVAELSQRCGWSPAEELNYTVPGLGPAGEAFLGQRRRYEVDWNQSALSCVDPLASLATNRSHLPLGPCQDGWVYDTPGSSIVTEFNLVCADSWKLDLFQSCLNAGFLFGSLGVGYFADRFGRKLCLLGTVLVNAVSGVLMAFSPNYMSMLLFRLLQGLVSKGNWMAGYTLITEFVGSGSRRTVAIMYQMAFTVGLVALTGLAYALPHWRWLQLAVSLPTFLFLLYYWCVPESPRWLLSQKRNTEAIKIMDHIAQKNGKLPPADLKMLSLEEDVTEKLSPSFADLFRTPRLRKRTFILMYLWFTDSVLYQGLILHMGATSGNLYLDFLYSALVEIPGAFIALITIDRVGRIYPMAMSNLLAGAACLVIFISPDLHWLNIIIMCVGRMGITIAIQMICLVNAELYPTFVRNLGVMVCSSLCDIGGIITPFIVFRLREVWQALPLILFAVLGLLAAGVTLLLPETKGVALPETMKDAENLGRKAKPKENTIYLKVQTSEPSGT
Experimental: as §3
The HEK293 cells were cultered in DMEM medium supplemented with 10% (v/v) fetal bovine serum as well as penicillin (100 U/ml) and streptomycin (100 μg/ml) obtained from Thermo Fisher Scientific (Darmstadt, Germany). Cells were seeded on 12-well plates coated with poly-D-lysine (Sigma-Aldrich, Taufkirchen, Germany) 48 h before the transport experiments and incubated at 37°C, 95% relative humidity, and 5% CO2. Cell lines overexpressing MATE2-K were incubated with 30 mM NH4Cl in HBSS+ (10 mM HEPES in HBSS, pH 7.4; Thermo Fisher Scientific, Darmstadt, Germany) for 30 min prior to the assay to invert the direction of transport. All cell lines were washed with 37°C HBSS+ and subsequently incubated with the pre-warmed substrate in HBSS+ at 37°C. The time points for measuring substrate uptake were 1 min for MATE2-K and 2 min for the other SLCs. […] It was assumed to be linear for the other transporters as well, based on previous experience with these expression systems. […] Subsequently, the intracellular substrate accumulation was determined using LC-MS/MS.
(§6) Intracellular accumulation was measured by HPLC-MS/MS using a Shimadzu Nexera HPLC system with a LC-30AD pump, a SIL-30AC autosampler, a CTO-20AC column oven, and a CBM-20A controller (Shimadzu, Kyoto, Japan). […] Peak integration and quantification of the analytes was done using the Analyst software (Version 1.6.2, AB SCIEX, Darmstadt, Germany) and determined by simultaneous measurement of standard curves with known concentrations.
For the screenings, cellular uptake measured in cell lines overexpressing the respective transporter was divided by the uptake measured in an empty vector control cell line to calculate normalised ratios to enable comparisons between test compounds. For studying transport kinetics, the net transport mediated by the overexpressed transporters was calculated by subtracting the cellular uptake measured in an empty vector control cell line from the uptake in cell lines overexpressing the respective transporter. […]

NET = NET (Homo sapiens, UniProt P23975); assay: Screening of cellular uptake at 1 µM, NET-overexpressing HEK293 cells over empty vector control cells; conditions: 2 min
NET, sequence (P23975 whole entry): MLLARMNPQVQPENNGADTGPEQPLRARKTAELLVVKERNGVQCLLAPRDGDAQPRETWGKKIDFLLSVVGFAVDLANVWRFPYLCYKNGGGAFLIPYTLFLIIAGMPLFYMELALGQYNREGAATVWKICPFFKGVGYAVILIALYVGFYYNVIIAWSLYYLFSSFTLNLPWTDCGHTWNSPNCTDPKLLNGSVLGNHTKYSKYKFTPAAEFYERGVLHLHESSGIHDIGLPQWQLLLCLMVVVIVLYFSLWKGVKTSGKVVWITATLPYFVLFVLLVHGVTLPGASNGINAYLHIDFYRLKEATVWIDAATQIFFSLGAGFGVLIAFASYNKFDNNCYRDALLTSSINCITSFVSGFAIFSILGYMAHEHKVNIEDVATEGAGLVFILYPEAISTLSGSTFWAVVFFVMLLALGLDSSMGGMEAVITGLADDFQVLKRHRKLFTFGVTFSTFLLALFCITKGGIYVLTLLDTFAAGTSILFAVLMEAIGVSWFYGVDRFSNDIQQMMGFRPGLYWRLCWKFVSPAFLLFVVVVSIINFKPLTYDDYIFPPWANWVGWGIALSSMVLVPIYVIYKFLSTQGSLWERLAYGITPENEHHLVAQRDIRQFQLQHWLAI
Experimental: (§7) The HEK293 cells were cultered in DMEM medium supplemented with 10% (v/v) fetal bovine serum as well as penicillin (100 U/ml) and streptomycin (100 μg/ml) obtained from Thermo Fisher Scientific (Darmstadt, Germany). Cells were seeded on 12-well plates coated with poly-D-lysine (Sigma-Aldrich, Taufkirchen, Germany) 48 h before the transport experiments and incubated at 37°C, 95% relative humidity, and 5% CO2. […] All cell lines were washed with 37°C HBSS+ and subsequently incubated with the pre-warmed substrate in HBSS+ at 37°C. The time points for measuring substrate uptake were 1 min for MATE2-K and 2 min for the other SLCs. […] The reaction was stopped by adding ice-cold HBSS+, and the cells were washed twice with ice-cold HBSS+ before lysis with 80% acetonitrile (LGC Standards, Wesel, Germany) including an internal standard. Subsequently, the intracellular substrate accumulation was determined using LC-MS/MS.
as §6

DAT [2] = molecular target: T7, DAT (Homo sapiens, UniProt Q01959); assay: Screening of cellular uptake at 1 µM, DAT-overexpressing HEK293 cells over empty vector control cells; conditions: 2 min
T7 sequence (Q01959 whole entry): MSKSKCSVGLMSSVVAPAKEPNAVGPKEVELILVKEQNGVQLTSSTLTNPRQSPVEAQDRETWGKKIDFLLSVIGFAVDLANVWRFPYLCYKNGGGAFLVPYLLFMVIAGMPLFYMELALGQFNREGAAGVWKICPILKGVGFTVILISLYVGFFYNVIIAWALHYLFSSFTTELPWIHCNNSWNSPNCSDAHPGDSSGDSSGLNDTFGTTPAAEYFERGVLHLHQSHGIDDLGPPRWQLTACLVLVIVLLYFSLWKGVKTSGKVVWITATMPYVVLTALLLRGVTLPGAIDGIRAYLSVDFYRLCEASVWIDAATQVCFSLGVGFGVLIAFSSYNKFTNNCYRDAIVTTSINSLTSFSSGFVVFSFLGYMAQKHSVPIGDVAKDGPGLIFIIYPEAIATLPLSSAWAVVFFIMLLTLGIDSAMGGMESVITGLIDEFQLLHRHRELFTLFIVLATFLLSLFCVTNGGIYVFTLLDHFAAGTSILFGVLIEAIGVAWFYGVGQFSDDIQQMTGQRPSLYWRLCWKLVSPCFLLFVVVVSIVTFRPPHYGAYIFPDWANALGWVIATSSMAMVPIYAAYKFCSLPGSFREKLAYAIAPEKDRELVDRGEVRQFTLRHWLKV
Experimental: as §7, §6

OCT1 [3] = molecular target: T1, OCT1; assay: Inhibition of mescaline uptake by OCT1; assay type: in vitro ADME; parameters: expressed in transfected cells; conditions: 1 mM MPP^+; compared with empty vector-transfected cells
OCT2 = molecular target: T8, OCT2 (Homo sapiens, UniProt O15244); assay: Screening of cellular uptake at 1 µM, OCT2-overexpressing HEK293 cells over empty vector control cells; conditions: 2 min
T8 sequence (O15244 1-555 S270A): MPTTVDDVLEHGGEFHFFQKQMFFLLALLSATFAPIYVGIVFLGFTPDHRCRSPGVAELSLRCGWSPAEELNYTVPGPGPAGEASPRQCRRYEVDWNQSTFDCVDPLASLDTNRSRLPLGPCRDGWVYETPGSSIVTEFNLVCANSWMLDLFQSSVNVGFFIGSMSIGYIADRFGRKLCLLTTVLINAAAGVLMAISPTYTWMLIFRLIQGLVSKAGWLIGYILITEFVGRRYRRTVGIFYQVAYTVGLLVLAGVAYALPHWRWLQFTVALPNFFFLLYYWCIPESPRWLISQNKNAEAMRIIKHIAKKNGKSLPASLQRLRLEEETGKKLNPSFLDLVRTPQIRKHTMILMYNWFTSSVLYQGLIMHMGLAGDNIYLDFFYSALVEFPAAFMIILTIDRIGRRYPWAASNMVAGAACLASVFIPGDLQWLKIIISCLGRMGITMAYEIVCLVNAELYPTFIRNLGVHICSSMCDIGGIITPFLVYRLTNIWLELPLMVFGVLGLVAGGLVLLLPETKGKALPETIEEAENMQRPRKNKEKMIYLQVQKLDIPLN
Excerpt: as §1, §2

[4] = four healthy volunteers; ref Toennes and Kauert, 2002; www.dosing.de and www.drugbank.ca; cited from earlier work
DAT [5] = molecular target: T7, DAT; assay: Concentration-dependent transport by DAT in HEK293 cells; conditions: DAT versus NET
wild-type OCT2 = molecular target: T9, wild-type OCT2 (Homo sapiens, UniProt O15244); assay: Concentration-dependent transport by wild-type OCT2 in HEK293 cells
T9 sequence (O15244 1-555 S270A): T8 sequence (O15244 1-555 S270A)

OCT2 variant A270S = molecular target: T10, OCT2 variant A270S (Homo sapiens, UniProt O15244); assay: Concentration-dependent transport by OCT2 variant A270S in HEK293 cells
T10 sequence (O15244 1-555): T8 sequence (O15244 1-555 S270A) with A270S

Structure (SMILES) | ratio of uptake in transporter-transfected cells over empty vector control cells (OCT1 [1]) | ratio of uptake in transporter-transfected cells over empty vector control cells (OCT3) | ratio of uptake in transporter-transfected cells over empty vector control cells (MATE2-K) | ratio of uptake in transporter-transfected cells over empty vector control cells (SERT) | vmax (OCT1*1 (WT)) | vmax (OCT1*3 (R61C)) | transport activity (OCT1*6 (M420del, C88R); OCT1*6) | Km (OCT1*6 (M420del, C88R); OCT1*6 (M420del, C88R)) | vmax (OCT1*6 (M420del, C88R); OCT1*6 (M420del, C88R)) | ratio of uptake in transporter-transfected cells over empty vector control cells (NET) | ratio of uptake in transporter-transfected cells over empty vector control cells (DAT [2]) | inhibition of mescaline uptake by OCT1 (OCT1 [3]) | ratio of uptake in transporter-transfected cells over empty vector control cells (OCT2) | excreted unchanged in urine [4] | Km higher for DAT compared with NET (DAT [5]) | vmax higher for DAT compared with NET (DAT [5]) | vmax (wild-type OCT2; OCT2 WT) | Km at 2 min (wild-type OCT2; human, pH 7.4) | vmax (OCT2 variant A270S; OCT2 A270S) | Km at 2 min (OCT2 variant A270S; human, pH 7.4)
COc1cc(CCN)cc(OC)c1OC [Mescaline] | more than 8 fold | not transported much | not transported much | not transported much | 642 pmol × mg protein^−1 × min^−1 and 642 ± 57 pmol × mg protein^−1 × min^−1 | 391 ± 266 pmol × mg protein^−1 × min^−1 | very low transport activity | Not determinable | Not determinable | not transported much | not transported much | – | – | – | – | – | – | – | – | –
C[n+]1ccc(-c2ccccc2)cc1 [MPP^+, 1-methyl-4-phenylpyridinium] | – | – | – | – | – | – | – | – | – | – | – | completely inhibited | – | – | – | – | – | – | – | –
C[C@H](N)[C@@H](O)c1ccccc1 [Cathine, (+)-norpseudoephedrine] | – | – | – | – | – | – | – | – | – | 4 fold | 7 fold | – | 4- to 6 fold | 46–65% | 21 fold | 10 fold | 570.1 (± 94.3) pmol × mg protein^-1 × min^-1 | 46 ± 17.3 µM | 505.4 (± 168.1) pmol × mg protein^-1 × min^-1 | 58.4 µM
